Series [1] has as its target BCL2 (Homo sapiens (Human), UniProt P10415). Description: Molecular level activity test of anti-apoptotic protein BCL2 (HTRF, binding to Bim peptide). As to conditions: HTRF, binding of BCL2 to Bim peptide; read-out: BCL2 nM (inhibitory activity, IC50). In a few lines: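 HTRF readout; His-BCL2 + biotin-BIM peptide + cpd (2% DMSO in compound addition), 1 h; then anti-His + SA-XL665 detection reagents, 4 h RT.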

For series [2], the target named is BCL2 (G101V) (Homo sapiens (Human), UniProt P10415, G101V). Put plainly: Molecular level activity test of anti-apoptotic protein BCL2 (G101V) (HTRF, binding to Bim peptide). To be noted: inhibition of BCL2 (G101V) binding to Bim peptide, read-out: BCL-2 (G101V). In outline: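 His-tagged recombinant BCL2 (G101V) incubated 1 h with biotin-BIM peptide and compound (2% DMSO), then anti-His and streptavidin-XL665 detection reagents added for 4 h at room temperature. HTRF signal reflects compound effect on BCL2–BIM binding.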

Series [3] addresses BCL2 (D103Y) (Homo sapiens (Human), UniProt P10415, D103Y). Description: Molecular level activity test of BCL2 (D103Y) (HTRF, binding to Bim peptide). As to conditions: read-out: BCL-2 (D103Y) (nM) (inhibitory activity, IC50). In a few lines: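 His-tagged recombinant protein mixed with biotinylated BIM peptide and compound (2% DMSO), reacted 1 h. Anti-His and streptavidin-XL665 detection reagents then added and incubated 4 h at room temperature before HTRF read-out of binding inhibition.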
On the technique in general: Time-resolved FRET reads energy transfer from a long-lived donor to a nearby acceptor.

For series [4], the system named is RS4; 11 cells. Description: Tumor proliferation inhibitory activity test (MTS) on RS4; 11. To be noted: Homo sapiens, RS4-11, 72 h, 3 days incubation. In kind it is cell-based. In outline:
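RS4;11 cells were exposed to serially diluted compound (0.2% DMSO control) for 3 days at 37 °C/5% CO2, followed by MTS for 3–4 h. Read-out was OD490−OD690, and inhibition was calculated relative to the DMSO and blank wells.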

The target of series [5] is BCL-XL (Homo sapiens (Human), UniProt Q07817). Put plainly: BCL-XL enzyme molecular level activity test (HTRF, binding to BIM peptide). As to conditions: binding of BCL-XL to BIM peptide, read-out: BCL-XL inhibitory activity (IC50). In a few lines:
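HTRF binding assay: His-tagged recombinant BCL-XL with biotin-BIM peptide and compound (2% DMSO), 1 h. Anti-His and streptavidin-XL665 detection reagents added, 4 h at room temperature. Excitation 320 nm; 665/615 nm ratio reflects binding, with no-protein background and no-compound full-binding controls.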

Series [6] deals with human platelets. Put plainly: Platelet viability test (CTG). The format is cell-based. As to conditions: CTG after 24 h. How it is done: After 10 mL of platelet-rich plasma was added to 30 mL of ACD-A solution and uniformly mixed, centrifugation was performed at 1200 g, and the supernatant was discarded; 10 mL of ACD-A solution was added, resuspended, uniformly mixed, and centrifuged at 1200 g for 10 min, and the supernatant was discarded. 5 mL of HEPES-Tyrode's buffer containing 1 μM PGE1 and 0.2 U/mL apyrase was added, slightly inverted, and then centrifuged at 800 g for 5 min, and the supernatant was discarded. 10 mL of HEPES-Tyrode's buffer containing 1 μM PGE1 and 0.2 U/mL apyrase was added, resuspended, and centrifuged at 1000 g for 5 min, and the supernatant was discarded. 2 mL of HEPES-Tyrode's buffer containing 1 μM PGE1+10% FBS-resuspended platelets was added, 200 μL was taken into a centrifuge tube and diluted to 2 mL. Then it was diluted to 1, 0.8, 0.6, 0.4, 0.2, 0.1, 0.08, 0.06, 0.04, 0.02, 0.01 times, the volume was complemented to 100 μL, and 50 μL of CTG reagent was added to detect cell viability. The maximum valid dilution with a fluorescence value not exceeding […] was selected for dilution, 90 μL/well was connected to a 96-well cell plate for chemiluminescence detection. A compound was prepared with HEPES-Tyrode's buffer containing 1 μM of PGE1+10% FBS, and added to the cells, which was gently beaten evenly and detected for cell viability by adding 50 μL CTG after 24 h.

Series [7] addresses human CYP3A4 enzyme (Homo sapiens (Human), UniProt P08684). Description: CYP3A4 enzyme inhibitory activity (Vivid CYP3A4 Green screening kit).
Experimental: The inhibitory activity of compounds on human CYP3A4 enzyme was detected using a VIVID™ CYP3A4 GREEN SCRNING KIT reagent kit. The Vivid™ CYP450 screening kit includes a Vivid™ substrate, Vivid™ fluorescence standard, reaction buffer, Vivid™ regeneration system, NADP+ and CYP450 BACULOSOMES™ Plus reagent. Operations were performed following the instructions, and a blank control group was set up without adding any compounds.
The IC50 value of the compounds inhibiting human CYP3A4 enzyme was calculated using Graphpad Prism 7.00 software through the formula Y=100/(1+10^((Log IC50−X)*HillSlope)).
Where [8] appears, read: read-out: CYP3A4 (IC50), Vivid CYP3A4 Green screening kit.

Where two headings read alike, the source gives them in different places.

Chain of human CYP3A4 enzyme (P08684 whole entry): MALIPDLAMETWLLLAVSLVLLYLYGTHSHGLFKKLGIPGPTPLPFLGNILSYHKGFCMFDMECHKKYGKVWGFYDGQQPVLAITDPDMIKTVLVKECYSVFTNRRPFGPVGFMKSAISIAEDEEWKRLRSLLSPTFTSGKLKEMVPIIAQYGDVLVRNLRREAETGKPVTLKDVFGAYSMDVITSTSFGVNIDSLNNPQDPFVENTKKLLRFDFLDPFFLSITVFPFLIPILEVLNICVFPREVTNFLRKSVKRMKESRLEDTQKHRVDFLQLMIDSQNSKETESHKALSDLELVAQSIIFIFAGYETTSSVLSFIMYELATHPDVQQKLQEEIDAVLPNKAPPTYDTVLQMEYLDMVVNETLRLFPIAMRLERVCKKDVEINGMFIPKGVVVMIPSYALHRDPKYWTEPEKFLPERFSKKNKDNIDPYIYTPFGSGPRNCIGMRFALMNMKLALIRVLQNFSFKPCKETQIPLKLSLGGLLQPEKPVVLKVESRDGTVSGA
Chain of BCL-XL (Q07817 whole entry): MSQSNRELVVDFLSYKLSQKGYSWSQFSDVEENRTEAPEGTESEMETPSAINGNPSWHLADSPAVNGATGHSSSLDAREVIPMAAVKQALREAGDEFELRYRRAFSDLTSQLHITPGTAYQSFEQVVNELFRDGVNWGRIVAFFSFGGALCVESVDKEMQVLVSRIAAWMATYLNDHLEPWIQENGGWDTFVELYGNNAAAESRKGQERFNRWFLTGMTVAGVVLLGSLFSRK

In the case of `COc1ccc(CN2CCN(C3CC4(CCN(c5cc(Oc6cnc7[nH]ccc7c6)c(C(=O)NS(=O)(=O)c6ccc(NC[C@H]7COCCO7)c([N+](=O)[O-])c6)cc5F)CC4)C3)[C@H](c3ccccc3C(C)C)C2)cc1` [compound 241, N-((4-((((S)-1,4-dioxan-2-yl)methyl)amino)-3-nitrophenyl)sulfonyl)-2-((1H-pyrrolo[2,3-b]pyrid-5-yl)oxy)-5-fluoro-4-(2-((R)-2-(2-isopropylphenyl)-4-(4-methoxybenzyl)piperazin-1-yl)-7-azaspiro[3.5]non-7-yl)benzamide], the IC50 in series [1] was less than 0.01 µM; in series [2], less than 0.01 µM; in series [3], less than 10 nM; in series [4] it was less than 0.0005 µM; in series [5] (values in nM), more than 500 nM; in series [6], more than 5 µM.

On to `COc1ccc(CN2CCN(C3CC4(CCN(c5cc(Oc6cnc7[nH]ccc7c6)c(C(=O)NS(=O)(=O)c6ccc(NCC7(F)CCOCC7)c([N+](=O)[O-])c6)cc5F)CC4)C3)[C@H](c3ccccc3C(C)C)C2)cc1OC` [compound 197, (R)-2-((1H-pyrrolo[2,3-b]pyrid-5-yl)oxy)-4-(2-(4-(3,4-dimethoxybenzyl)-2-(2-isopropylphenyl)piperazin-1-yl)-7-azaspiro[3.5]non-7-yl)-5-fluoro-N-((4-(((4-fluorotetrahydro-2H-pyran-4-yl)methyl)amino)-3-nitrophenyl)sulfonyl)benzamide], for which the IC50 in series [1] is less than 0.01 µM; in series [2] it was less than 0.01 µM; in series [3] it was less than 10 nM; in series [4] it was less than 0.0005 µM; in series [5] (values given in μM), more than 1000 nM; in series [6] it was more than 5 µM. Besides, the IC50 in series [7] (setting [8]) is more than 20 µM.

With `CC(C)c1ccccc1[C@@H]1CN(Cc2cnn(C)c2)CCN1C1CC2(CCN(c3cc(Oc4cnc5[nH]ccc5c4)c(C(=O)NS(=O)(=O)c4ccc(NCC5(F)CCOCC5)c([N+](=O)[O-])c4)cc3F)CC2)C1` [compound 209, (R)-2-((1H-pyrrolo[2,3-b]pyrid-5-yl)oxy)-5-fluoro-N-((4-(((4-fluorotetrahydro-2H-pyran-4-yl)methyl)amino)-3-nitrophenyl)sulfonyl)-4-(2-(2-(2-isopropylphenyl)-4-((1-methyl-1H-pyrazole-4-yl)methyl)piperazin-1-yl)-7-azaspiro[3.5]non-7-yl)benzamide], the IC50 in series [1] was less than 0.01 µM; in series [2], less than 0.01 µM; in series [3], less than 10 nM; in series [4] it was less than 0.0005 µM; in series [5] (values given in μM), 1900 nM; in series [6], more than 5 µM. In addition, the IC50 in series [7] (setting [8]) was more than 20 µM.

`COc1cc(CN2CCN(C3CC4(CCN(c5cc(Oc6cnc7[nH]ccc7c6)c(C(=O)NS(=O)(=O)c6ccc(NCC7(F)CCOCC7)c([N+](=O)[O-])c6)cc5F)CC4)C3)[C@H](c3ccccc3C(C)C)C2)ccc1CN(C)C` [compound 247, (R)-2-((1H-pyrrolo[2,3-b]pyrid-5-yl)oxy)-4-(2-(4-(4-((dimethylamino)methyl)-3-methoxybenzyl)-2-(2-isopropylphenyl)piperazin-1-yl)-7-azaspiro[3.5]non-7-yl)-5-fluoro-N-((4-(((4-fluorotetrahydro-2H-pyran-4-yl)methyl)amino)-3-nitrophenyl)sulfonyl)benzamide]: the IC50 was less than 0.01 µM in series [1]; less than 0.01 µM in series [2]; less than 10 nM in series [3]; 0.0005 to 0.001 µM in series [4]; more than 500 nM in series [5] (values in nM); more than 5 µM in series [6].

Consider `COc1ccc(CN2CCN(C3CC4(CCN(c5cc(Oc6cnc7[nH]cc(F)c7c6)c(C(=O)NS(=O)(=O)c6ccc(NCC7(F)CCOCC7)c([N+](=O)[O-])c6)cc5F)CC4)C3)[C@H](c3ccccc3C(C)C)C2)cc1` [compound 252, (R)-5-fluoro-2-((3-fluoro-1H-pyrrolo[2,3-b]pyrid-5-yl)oxy)-N-((4-(((4-fluorotetrahydro-2H-pyran-4-yl)methyl)amino)-3-nitrophenyl)sulfonyl)-4-(2-(2-(2-isopropylphenyl)-4-(4-methoxybenzyl)piperazin-1-yl)-7-azaspiro[3.5]non-7-yl)benzamide], for which the IC50 in series [1] is less than 0.01 µM; in series [2], less than 0.01 µM; in series [3] it was less than 10 nM; in series [4], 0.0005 to 0.001 µM; in series [5] (values in nM), more than 500 nM; in series [6], more than 5 µM.

For the compound `CC(C)c1ccccc1[C@@H]1CN(Cc2ccc(F)c(F)c2)CCN1C1CC2(CCN(c3cc(Oc4cnc5[nH]ccc5c4)c(C(=O)NS(=O)(=O)c4ccc(NCC5(F)CCOCC5)c([N+](=O)[O-])c4)cc3F)CC2)C1` [compound 190, (R)-2-((1H-pyrrolo[2,3-b]pyrid-5-yl)oxy)-4-(2-(4-(3,4-difluorobenzyl)-2-(2-isopropylphenyl)piperazin-1-yl)-7-azaspiro[3.5]non-7-yl)-5-fluoro-N-((4-(((4-fluorotetrahydro-2H-pyran-4-yl)methyl)amino)-3-nitrophenyl)sulfonyl)benzamide], the IC50 in series [2] is less than 0.01 µM; in series [3], less than 10 nM; in series [4] it was less than 0.0005 µM; in series [5] (values in nM), more than 500 nM; in series [6], more than 5 µM; in series [7], more than 20 µM.

For `COc1ccc(CN2CCN(C3CC4(CCN(c5cc(Oc6cnc7[nH]ccc7c6)c(C(=O)NS(=O)(=O)c6ccc(NCC7(F)CCOCC7)c([N+](=O)[O-])c6)cc5F)CC4)C3)[C@H](c3ccccc3C(C)C)C2)cn1` [compound 242, (R)-2-((1H-pyrrolo[2,3-b]pyrid-5-yl)oxy)-5-fluoro-N-((4-(((4-fluorotetrahydro-2H-pyran-4-yl)methyl)amino)-3-nitrophenyl)sulfonyl)-4-(2-(2-(2-isopropylphenyl)-4-((6-methoxypyrid-3-yl)methyl)piperazin-1-yl)-7-azaspiro[3.5]non-7-yl)benzamide], the IC50 was less than 0.01 µM in series [1]; less than 0.01 µM in series [2]; less than 10 nM in series [3]; less than 0.0005 µM in series [4]; more than 500 nM in series [5] (values in nM); more than 5 µM in series [6]. Besides, the IC50 in series [7] (setting [8]) is more than 20 µM.

Consider `COc1ccc(CN2CCN(C3CC4(CCN(c5cc(Oc6cnc7[nH]ccc7c6)c(C(=O)NS(=O)(=O)c6ccc(NCC7CCOCC7)c([N+](=O)[O-])c6)cc5F)CC4)C3)[C@H](c3ccccc3C(C)C)C2)cc1` [compound 239, (R)-2-((1H-pyrrolo[2,3-b]pyrid-5-yl)oxy)-5-fluoro-4-(2-(2-(2-isopropylphenyl)-4-(4-methoxybenzyl)piperazin-1-yl)-7-azaspiro[3.5]non-7-yl)-N-((3-nitro-4-(((tetrahydro-2H-pyran-4-yl)methyl)amino)phenyl)sulfonyl)benzamide], for which the IC50 in series [1] is less than 0.01 µM; in series [2], less than 0.01 µM; in series [4], less than 0.0005 µM; in series [5] (values in nM) it was more than 500 nM; in series [6], more than 5 µM; in series [7] (setting [8]), more than 20 µM.

Source of the values: patent US20250034135A1, “ANTI-APOPTOTIC PROTEIN BCL-2 INHIBITOR, PHARMACEUTICAL COMPOSITION AND USES THEREOF” (HANGZHOU HEALZEN THERAPEUTICS CO., LTD., priority 2021, published 2025).
